Test results reported in article PMC9305623, “Next generation GLP-1/GIP/glucagon triple agonists normalize body weight in obese mice” (Molecular Metabolism, 2022).

How the values were obtained:
hGLP-1 Receptor = target: T1, hGLP-1 Receptor (Homo sapiens, UniProt P43220); assay: Receptor activation: cAMP production by CRE-luciferase reporter in stably transfected BHK cells; type: cell-based; settings: compared to the native ligand for the receptor
T1 construct: expressed in transfected cells; host or cells: baby hamster kidney (BHK) cells, stably transfected, with CRE-firefly luciferase reporter
Procedure: (§1) Cyclic AMP (cAMP) production was assessed as a proxy for receptor activation using stably transfected baby hamster kidney (BHK) cell lines expressing the DNA for one individual receptor (GLP-1R, GIPR, GcgR; human- or mouse-specific sequence) and the DNA for the firefly luciferase reporter gene linked to the cAMP response element (CRE). The cells were kept in continuous culture at 37 °C and 5% CO2 in Dulbecco's Modified Eagle Medium (DMEM) supplemented with 10% heat-inactivated fetal bovine serum (HI-FBS), 300 μg/mL hygromycin, and 500 μg/mL G418; for cell lines expressing GIPR, the G418 concentration was lowered to 400 μg/mL. Cells were plated in a 96-well poly-D-lysine-coated plate at 5,000 cells per well in growth media and incubated overnight at 37 °C with 5% CO2. After the overnight incubation, the media was removed, the plate was washed once in Dulbecco's phosphase-buffered saline (DPBS), and 50 μL of assay buffer (DMEM without phenol red, 10 mM HEPES, 1x Glutamax, 1% ovalbumin, 0.1% Pluronic F-68) was added to each well. […] Aliquots of the dilution curves were added to the cell plate in a volume of 50 μL per well resulting in final assay concentrations ranging from 1 × 10^−14 to 1 × 10^−7 M. The assay plate was incubated for 3 h at 37 °C and 5% CO2. After the incubation, the assay plate was washed once with DPBS. A 100 μL aliquot of DPBS was added to each well followed by 100 μL of steadylite plus reagent (PerkinElmer). The assay plate was covered to protect reagent from light, shaken at 250 rpm at room temperature for 30 min, and read in a microtiter plate reader. EC50 values were calculated using Prism software (GraphPad) with the nonlinear regression log(agonist) vs. response. A minimum of two replicates were measured for each sample.

hGcg Receptor = target: T2, hGcg Receptor (Homo sapiens, UniProt P47871); assay: as above; type: cell-based; settings: compared to the native ligand for the receptor
T2 construct: expressed in transfected cells; host or cells: baby hamster kidney (BHK) cells, stably transfected, with CRE-firefly luciferase reporter
Procedure: as §1

hGIP Receptor = target: T3, hGIP Receptor (Homo sapiens, UniProt P48546); assay: as above; type: cell-based; settings: compared to the native ligand for the receptor
T3 construct: expressed in transfected cells; host or cells: baby hamster kidney (BHK) cells, stably transfected, with CRE-firefly luciferase reporter
T3 sequence (P48546 22-466): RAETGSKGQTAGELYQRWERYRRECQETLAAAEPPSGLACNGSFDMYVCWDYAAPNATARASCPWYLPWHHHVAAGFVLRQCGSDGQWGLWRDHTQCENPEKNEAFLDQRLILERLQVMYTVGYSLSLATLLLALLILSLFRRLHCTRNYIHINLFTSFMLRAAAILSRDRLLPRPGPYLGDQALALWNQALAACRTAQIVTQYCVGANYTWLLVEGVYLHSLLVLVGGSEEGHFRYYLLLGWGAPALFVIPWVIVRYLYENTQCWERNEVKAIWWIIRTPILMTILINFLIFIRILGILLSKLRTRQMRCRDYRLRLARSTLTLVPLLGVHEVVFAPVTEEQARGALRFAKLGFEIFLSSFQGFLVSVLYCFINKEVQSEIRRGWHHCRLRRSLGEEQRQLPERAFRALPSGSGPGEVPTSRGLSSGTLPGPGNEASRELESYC
Procedure: as §1

in vivo = assay: in vivo; set-up: species or system Göttingen minipigs; settings: female, Göttingen, minipig, iv, 2 nmol/kg
Procedure: Studies were conducted in accordance with the Protection of Animals Act, the Act on Experiments on Animals, and the Standard Operating Procedures for Experiments on Animals at Novo Nordisk A/S. The experiments were performed under the supervision and approval of the Danish Government Animal Experiments Inspectorate and the Novo Nordisk Ethical Review Counsel. Female Göttingen minipigs (Ellegaard Göttingen Minipigs A/S), 7–14 months old and weighing 16–35 kg, were housed individually and fed once daily with a restricted SDS minipig diet (Special Diets Services). At least one week before the study, two permanent central venous catheters were implanted in the caudal vena cava of each animal. The animals were fasted for approximately 18 h before dosing and 4 h after dosing but had ad libitum access to water during the whole period. Test compounds dissolved to a concentration of 20–40 nmol/mL in a vehicle (pH 7.4) containing 0.025% polysorbate-20, 10 mM sodium phosphate, and 250 mM glycerol were administered via an intravenous injection through one catheter at a dose of 2 nmol/kg. Blood samples were collected in 8 mM aqueous EDTA for up to 14 days post dosing, preferably through the other catheter, then centrifuged at 4 °C and ∼2000g for 10 min. Plasma was isolated and immediately frozen until RP-HPLC/MS analysis. Individual plasma concentration–time profiles were analysed by a non-compartmental model in Phoenix WinNonLin software (Pharsight Inc.), and the resulting terminal half-lives were determined at the harmonic mean.

T1 sequence (P43220 24-463): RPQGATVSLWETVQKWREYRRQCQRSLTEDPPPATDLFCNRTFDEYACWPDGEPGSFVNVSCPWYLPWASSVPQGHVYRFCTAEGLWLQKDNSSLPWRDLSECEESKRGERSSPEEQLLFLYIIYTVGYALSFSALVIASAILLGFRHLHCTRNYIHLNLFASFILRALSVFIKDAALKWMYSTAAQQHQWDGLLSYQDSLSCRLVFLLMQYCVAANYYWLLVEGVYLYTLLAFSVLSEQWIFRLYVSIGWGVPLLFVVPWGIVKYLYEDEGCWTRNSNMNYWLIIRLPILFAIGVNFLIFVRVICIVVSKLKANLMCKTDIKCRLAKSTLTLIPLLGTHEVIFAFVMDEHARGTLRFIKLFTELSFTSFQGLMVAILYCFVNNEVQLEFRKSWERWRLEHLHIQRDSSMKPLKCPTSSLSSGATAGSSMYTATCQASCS
T2 sequence (P47871 26-477): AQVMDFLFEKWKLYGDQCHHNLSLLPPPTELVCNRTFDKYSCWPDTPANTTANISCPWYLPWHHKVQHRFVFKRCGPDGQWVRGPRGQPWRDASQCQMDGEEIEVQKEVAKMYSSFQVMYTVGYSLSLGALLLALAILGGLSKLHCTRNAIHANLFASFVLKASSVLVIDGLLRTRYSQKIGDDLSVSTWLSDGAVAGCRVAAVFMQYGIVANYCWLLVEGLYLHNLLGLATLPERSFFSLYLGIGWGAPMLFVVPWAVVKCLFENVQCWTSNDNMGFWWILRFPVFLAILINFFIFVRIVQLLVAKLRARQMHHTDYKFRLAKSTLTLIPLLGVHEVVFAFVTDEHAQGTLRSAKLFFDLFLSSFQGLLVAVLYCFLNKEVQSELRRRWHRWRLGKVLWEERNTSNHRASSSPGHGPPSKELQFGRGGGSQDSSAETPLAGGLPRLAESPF

CC[C@H](C)[C@H](NC(=O)[C@H](CO)NC(=O)[C@H](Cc1ccc(O)cc1)NC(=O)[C@H](CC(=O)O)NC(=O)[C@H](CO)NC(=O)[C@@H](NC(=O)[C@H](Cc1ccccc1)NC(=O)[C@@H](NC(=O)CNC(=O)[C@H](CCC(N)=O)NC(=O)C(C)(C)NC(=O)[C@@H](N)Cc1ccc(O)cc1)[C@@H](C)O)[C@@H](C)O)C(=O)N[C@@H](Cc1ccc(O)cc1)C(=O)N[C@@H](CC(C)C)C(=O)N[C@@H](CC(=O)O)C(=O)N[C@@H](CCCCNC(=O)COCCOCCNC(=O)COCCOCCNC(=O)CC[C@H](NC(=O)CCCCCCCCCCCCCCCCC(=O)O)C(=O)O)C(=O)N[C@@H](CCC(N)=O)C(=O)N[C@@H](C)C(=O)N[C@@H](C)C(=O)NC(C)(C)C(=O)N[C@@H](CCC(=O)O)C(=O)N[C@@H](Cc1ccccc1)C(=O)N[C@H](C(=O)N[C@@H](CC(N)=O)C(=O)N[C@@H](Cc1c[nH]c2ccccc12)C(=O)N[C@@H](CC(C)C)C(=O)N[C@@H](CC(C)C)C(=O)N[C@@H](C)C(=O)NCC(=O)NCC(=O)N1CCC[C@H]1C(=O)N[C@@H](CO)C(=O)N[C@@H](CO)C(=O)NCC(=O)N[C@@H](C)C(=O)N1CCC[C@H]1C(=O)N1CCC[C@H]1C(=O)N1CCC[C@H]1C(=O)N[C@@H](CO)C(N)=O)C(C)C [Compound 7]
hGLP-1 Receptor Relative Potency % (hGLP-1 Receptor): 93% | hGcg Receptor Relative Potency % (hGcg Receptor): 12% | hGIP Receptor Relative Potency % (hGIP Receptor): 38% | Vd (in vivo): 0.121 L/kg | clearance (in vivo): 1.4 mL/h/kg
